In data set [1] the test system is fixed U-2 OS human osteosarcoma cells. In words: Nuclear staining of fixed cells by fluorescence microscopy. It is filed as cell-based. To be noted: 20 μM, cells fixed with 4% paraformaldehyde. The method, then:
Cell culture: Human osteosarcoma cells U-20S (ATCC HTB-96) cells (adherent) were cultured in McCoy's 5a medium supplemented with 10% foetal calf serum (FCS), 1 mM glutamine, and antibiotics and incubated at 37° C. in an atmosphere of 5% CO2 in air. For fluorescence imaging experiments, cells were grown at a density of 1×10^5 cells ml^−1 as a monolayer in coverglass bottomed chambers (Nunc, 2 Well Lab-Tek II, Fisher Scientific). Imaging: Following a 24 hour period cells were then fixed with 4% paraformaldehyde in PBS for 15-30 min at room temperature. No washing step is required. Compound (IA) was used in a manner appropriate to being the final staining procedure, after any treatment. Compound (IA) was added directly at 20 μM in to a 0.5 ml PBS overlay of the adherent cells. Cells were directly viewed using wide-field fluorescence microscopy. Chambers were placed onto an Axiovert 100 microscope (Carl Zeiss, Welwyn Garden City, UK and using a 40×, 1.3 NA oil immersion plan apochromat lens).fluorescence images (Ex: 620/60 nm; Em 700/75 nm) nm captured using an ORCA-ER CCD camera (Hamamatsu, Reading, UK) and MetaMorph (MDS, USA) acquisition software. […] The compound (IA) staining of nuclei were segmented using a simple threshold algorithm which depict the nuclei, and provide binary or mask information of each nucleus (object) localization. […]

The subject of data set [2] is live cells and dead cells. In words: Cell permeant/cell impermeant dye combination staining of live and dead cells. It is filed as cell-based. Also noted: key to Live cell stain / Dead cell stain: +: positive; −: negative. The note with it: for Dead cell stain / Live cell stain: combination staining pattern, predicted. The text has this:
It will be appreciated that this provides the opportunity to perform numerous advantageous two-colour, two-fluorochrome experiments. Moreover, the present inventors have realised that dye combinations of this type also provide a platform for performing a range of advantageous experiments using one or more further fluorochromes.
(§1) These possible detection systems and others will now be described in more detail with reference to FIGS. 1 to 9. […] Therefore, the Compound of Formula (IIA) fluorescence is generally in the orange portion of the visible spectrum, whereas compound (IA) fluorescence is generally in the far red portion of the visible spectrum. […] The compound of Formula (IIA) is a cell permeant dye, and therefore it would be expected that the fluorescence signature B would be in connection with live or dead cells. […] As might perhaps be expected, it is only the fluorescence signature B associated with the cell permeant dye which is observed. […] It might be expected that a significant contribution of the observed fluorescence would emanate from the compound of Formula (IIA) dye. […] Therefore, the compound (IA) dye appears to quench the compound of Formula (IIA) signal. […] However, other mechanisms may play a role. The upshot is that it is possible to provide a “traffic light” system to indicate the state of a cell, wherein fluorescence in one spectral region A is associated with dead cells, and fluorescence in another spectral region B is associated with live cells.

Another data set relates to human Jurkat cells. In words: Multi-parameter JC-1 / compound (IA) analysis of staurosporine treated cells. It is filed as cell-based. The note with it: 3 μM with JC-1, Jurkat cells, 1 μM staurosporine for 4 hours. The text has this:
In this example, the dye JC-1 (5,5′,6,6′-tetrachloro-1,1′,3,3′-tetraethylbenzimidazol-carbocyanine iodide) is a lipophilic fluorescent cation that incorporates into the mitochondrial membrane, where it can form aggregates due to the physiological maintenance membrane potential of mitochondria. Aggregation modifies the fluorescence properties of JC-1 leading to a shift from green to orange fluorescence. Flow cytometry or imaging was used to monitor the decrease of the orange fluorescence and an increase of the green fluorescence allowing apoptotic cells to be distinguished from non-apoptotic cells.
Cell culture and drug treatment: A Jurkat cell line was used in this study Jurkat cultures was routinely maintained in RPMI 1640 supplemented with 10% FCS and 100 U ml-1 penicillin, 100 μg ml-1 streptomycin, and 2 mM glutamine. […] These were then analysed by flow cytometry or placed into a Nunc, 2 Well Lab-Tek II, (Fisher Scientific) and analysed by three channel confocal microscopy.
Multi-parameter flow cytometry of staurosporine treated cells A FACS Vantage flow cytometer (as for example above). […] JC-1 two parameter fluorescent signal were derived from 488 nm excitation were detected in logarithmic mode Green J-monomer was detected using FL1 (530/30 nm emission); Orange J-aggregate was detected using FL2 (585/42 nm emission). […]

Data set [3] in a line: Spectral properties (absorbance and fluorescence spectra). The data set is classed as physicochemical. The note with it: for Em peak / Ex peak: FIG. 1, in general terms (diagrammatically).
Text: as §1
Compound (IA) was synthesized using the principles described in Example 2 and stored at +4° C. as a stock solution of 5 mM compound (IA) dilution in buffer. Absorbance spectra were obtained using a spectrometer and a 20 μM solution of agent dissolved in PBS and measured in a 1 cm path quartz silica cuvette. Fluorescence spectra for a solution of 20 μM compound (IA) in a 1 cm path length semi-micro quartz cuvette were determined by excitation at 633, 589, 534, 488 nm. Fluorescence measurements were made on a Perkin Elmer LS50 spectrofluorometer with slit widths set at 10 nm. The spectrofluoremeter was equipped with a red-sensitive photomultiplier tube (Type R928; Hamamatsu Photonics KK, Japan. Data were accumulated and exported into a spread sheet to correct for the buffer control and to determine emission maxima. The results are shown in FIG. 8. Compound (IA) may be sub-optimally excited by wavelengths from 488 nm (in flow cytometry) and up to 647 nm (Exλmax 646 nm). Typically, for cell imaging, excitation is performed with either 633 nm or 647 nm wavelengths. Emission spectra are independent of excitation wavelength, ie, all the emission spectra are identical irrespective of excitation wavelength.

Data set [4] deals with DoHH2 cultures treated with VP-16. In words: Combination tracking of cell status with compound (IA) plus compound (IIA), flow cytometry. It is filed as cell-based, human. To be noted: 20 μM compound (IIA) and 4 μM compound (IA), 10 minutes, VP-16 0.25 μM. The method, then: Cell culture and drug treatment: A human follicular B-lymphoma cell line was used in this study. DoHH2 was routinely maintained in RPMI 1640 supplemented with 5% FCS and 100 U ml-1 penicillin, 100 μgml^−1 streptomycin, and 2 mM glutamine. The cells were passaged twice weekly at an initiating density of 5×10^4 cells ml^−1 cultured at 37° C. in a humidified atmosphere of 5% CO2/95% air. Cells were set at 5×10^5 cells/per ml and exposed to VP-16 doses (0.25 μM) to induce apoptosis. 20 μM Compound (IIA) and 4 μM compound (IA) were added to 1 ml of cells and incubated under standard culture conditions for 10 minutes. The samples were analysed by flow cytometry.
A FACS Vantage flow cytometer (as for example above) was used. Compound (IIA) and compound (IA) fluorescent signals derived from 488 nm excitation were detected in linear mode at FL2 for Compound (IIA) (585/42 nm filters); compound (IA) signal derived from 488 nm were detected in linear mode at FL3 with a 695LP filter and a FL1/2 560 nm SP dichroic SP to determine scatter properties. Signals for forward and side scatter and fluorescence were collected for 10,000 cells using the forward light scatter parameter as the master signal. Contour plots of side versus forward scatter depict two populations of cells. The addition of Compound (IIA) and compound (IA) provide functional status of these cultures. […]

With “1,5-Bis{[2-(trimethylamino)ethyl]amino}-5,8-dihydroxyanthracene-9,10-dione iodide [Compound (IA)]”, the “Nuclear localisation of dye” value in data set [1] is “localization of high levels of compound (IA) in the nucleus”. In data set [2], the Cell permeation property result was “cell impermeant”, the Dead cell stain entry is on record as “+” and the Live cell stain entry is “−”. Moreover, the “Discrimination of early and late apoptosis sub-fractions” value in the data set with human Jurkat cells is given as “can depict these sub-fractions”. In data set [3] (20 μM solution in PBS), this molecule yielded an Exλmax of 646 nm. In data set [3], this molecule gave an Em peak of 660 nm and an Ex peak of 620 nm. The Cell fraction identified entry in data set [4] is listed as “identifies the non-intact cell fraction”.

With `CN(C)CCNc1cccc2c1C(=O)c1cccc(NCCN(C)C)c1C2=O` [Compound (IIA), 1,5-Bis{[2-(dimethylamino)ethyl]amino}anthracene-9,10-dione], in data set [2], the Cell permeation property result was “cell permeant”, the Dead cell stain result is “−” and the Live cell stain result is reported as “+”. Also, in data set [2] (in combination with compound (IA)), the “Fluorescence observed in dead cells” value is reported as “little or no fluorescence”. Besides, in data set [3], the Em peak amounted to 615 nm and the Ex peak amounted to 518 nm. Moreover, in data set [4], the Cell fraction identified result is “positive cells represent the live cell (viable) fraction”.
